Source: PMC4184567, “Glucuronidation of drugs in humanized UDP-glucuronosyltransferase 1 mice: Similarity with glucuronidation in human liver microsomes” (Pharmacology Research & Perspectives, 2013)
Each block holds one compound with its values, some of them ahead of it.

Assays:
[1] = test system: UGT (furosemide glucuronidation); experiment: Inhibition of furosemide glucuronidation in regular mouse liver microsomes; assay type: in vitro ADME; details: CD-1, mouse, pH 7.4, probe furosemide; regular mice liver microsomes
Source text: (§1) IC50 values were directly determined from linear regression.

[2] = test system: UGT (furosemide glucuronidation); experiment: Inhibition of furosemide glucuronidation in human liver microsomes; assay type: in vitro ADME; details: pH 7.4, probe furosemide
Source text: as §1

[3] = test system: UGT (furosemide glucuronidation); experiment: Inhibition of furosemide glucuronidation in liver microsomes from hUGT1 mice; assay type: in vitro ADME, humanized UGT1 mice; details: male, Tg(UGT1A1*28)Ugt1−/− (hUGT1), C57BL/6 background, mouse (humanized UGT1), pH 7.4, probe furosemide; humanized UGT1 mice liver microsomes
Source text: as §1

[4] = test system: UGT activities in mouse liver microsomes; set-up: method as in Court and Greenblatt [1997]; details: ref Court and Greenblatt [1997]; cited from earlier work
[5] = test system: UGT activities in human liver microsomes; set-up: method as in Court and Greenblatt [1997]; details: ref Court and Greenblatt [1997]; cited from earlier work
[6] = test system: liver microsomes from hUGT1 mice
[7] = test system: furosemide glucuronidation in mouse liver microsomes; experiment: Inhibition of furosemide glucuronidation in regular mouse liver microsomes; assay type: in vitro ADME; details: regular mice liver microsomes, 500 μmol/L AZT
Source text: as §1

[8] = test system: furosemide glucuronidation in human liver microsomes; experiment: Inhibition of furosemide glucuronidation in human liver microsomes; assay type: in vitro ADME; details: 500 μmol/L AZT
Source text: as §1

[9] = test system: furosemide glucuronidation in liver microsomes from hUGT1 mice; experiment: Inhibition of furosemide glucuronidation in liver microsomes from hUGT1 mice; assay type: in vitro ADME, humanized UGT1 mice; details: hUGT1 mice liver microsomes, 500 μmol/L AZT
Source text: as §1

[10] = test system: furosemide glucuronidation in human liver microsomes; details: 0–0.5% BSA
[11] = test system: furosemide glucuronidation in liver microsomes from hUGT1 mice; details: 0–0.5% BSA
[12] = test system: furosemide glucuronidation in liver microsomes from control mice; details: 0–0.5% BSA

IC50 at 30 min [1]: 450 µM
IC50 at 30 min [2]: > 5000 µM
IC50 at 30 min [3]: 610 µM
Compound: NCCc1c[nH]c2ccc(O)cc12 [serotonin]

Compound: C[C@H](CCC(=O)NCCC[N+](C)(C)CCCS(=O)(=O)[O-])[C@H]1CC[C@H]2[C@@H]3[C@H](O)C[C@@H]4C[C@H](O)CC[C@]4(C)[C@H]3C[C@H](O)[C@]12C [CHAPS]
Increase of UGT activity by detergent [4]: 439–563%
Increase of UGT activities by detergent [5]: 9–66%

N-glucuronide formation (mouse liver microsomes): not detected
N-glucuronide formation [6]: lesser but detectable amount
N-glucuronide formation (human liver microsomes): observed
Compound: CN1CCN(CCCN2c3ccccc3Sc3ccc(C(F)(F)F)cc32)CC1 [trifluoperazine]

IC50 at 30 min [1]: > 500 µM
IC50 at 30 min [2]: > 500 µM
IC50 at 30 min [3]: > 500 µM
Compound: Cc1cn([C@H]2C[C@H](N=[N+]=[N-])[C@@H](CO)O2)c(=O)[nH]c1=O [AZT, 3′-azido-3′-deoxythymidine]
Inhibition of furosemide glucuronidation (in words) [7]: did not inhibit
Inhibition of furosemide glucuronidation (in words) [8]: did not inhibit
Inhibition of furosemide glucuronidation (in words) [9]: did not inhibit

Compound: bovine serum albumin [BSA]
Effect of BSA on furosemide glucuronidation [10]: concentration-dependently activated
Effect of BSA on furosemide glucuronidation [11]: similarly observed
Effect of BSA on furosemide glucuronidation [12]: similarly observed

IC50 at 30 min [1]: 111 µM
IC50 at 30 min [2]: 31.7 µM
IC50 at 30 min [3]: 32.5 µM
Compound: C[C@]12CC[C@@H]3c4ccc(O)cc4CC[C@H]3[C@@H]1CC[C@@H]2O [estradiol]
